Test results as given in US7297700B2, “Bicycloheteroaryl compounds as P2X7 modulators and uses thereof” (Renovis, Inc., priority 2005, dated 2007).

The compounds below were run on IL-1β release from THP-1 cells (assay: IL-1β Release Assay (Alternate Method), THP-1 cells). Settings: Homo sapiens, THP-1, read-out: IL-1β % inhibition.
Type: cell-based, human
Procedure: THP-1 cells (ATCC Cat #285-IF-100) are plated in 96 well plates at a concentration of 200,000 cells per well and allowed to differentiate in RPMI-1640 media (ATCC Cat #30-2001) containing 10% FBS, 100 IU/mL penicillin, 100 ug/mL streptomycin, 100 ng/mL LPS and 100 ng/mL IFN-γ for 16 hours. Following differentiation, the cells are treated for an additional 2 hours in RPMI-1640 media containing 100 IU/mL penicillin, 100 ug/mL streptomycin and fresh LPS at 100 ng/mL. The cells are then pretreated for 30 minutes with the compound of interest at the appropriate concentration in RPMI media containing 100 IU/mL penicillin, 100 ug/mL streptomycin. Following the pretreatment 2′, 3′-O-(4-benzoylbenzoyl)-adenosine 5′-triphosphate (Sigma Aldrich Cat#B6396) is added to a final concentration of 250 uM and the cells incubated for an additional 45 minutes. 30 uL of cell supernatant is then collected and IL-1β levels determined via ELISA (R&D systems Cat. #HSLB50) according to manufacturer's recommendations using the Tecan Safire plate reader. Background adjusted IL-1β levels of drug treated and non-treated cells are used to calculate the percent inhibition.

**Q.** For `O=C(CC12CC3CC(CC(C3)C1)C2)Nc1ncnc2c1CCN(CCCO)C2` [Compound 19, 2-adamantan-1-yl-N-[7-(3-hydroxy-propyl)-5,6,7,8-tetrahydro-pyrido[3,4-d]pyrimidin-4-yl]-acetamide], which inhibition at 0.3 µM is on record?
**A.** 0 to 25%

**Q.** Which inhibition at 0.3 µM does the source give for `O=C(CC12CC3CC(CC(C3)C1)C2)Nc1ncnc2c1CCN(CC(O)CO)C2` (stereo not drawn) [Compound 23, 2-Adamantan-1-yl-N-[7-(2,3-dihydroxy-propyl)-5,6,7,8-tetrahydro-pyrido[3,4-d]pyrimidin-4-yl]-acetamide] here?
**A.** 0 to 25%

Same assay, conditions: at 0.3 μM; THP-1 cells

**Q.** For `O=C(CC12CC3CC(CC(C3)C1)C2)Nc1ncnc2c1CCN(S(=O)(=O)Cc1ccc(C(F)(F)F)cc1)C2` [Compound 183], which IL-1β % inhibition is on record?
**A.** ++ (compound exhibited 25-50% inhibition at 0.3 μM)

**Q.** For `O=C(CC12CC3CC(CC(C3)C1)C2)Nc1ncnc2c1CCN(C(=O)C1COc3ccccc3C1)C2` (stereo not drawn) [Compound 313], which IL-1β % inhibition is on record?
**A.** ++++ (compound exhibited 75% or greater inhibition at 0.3 μM)

**Q.** For `O=C(CC12CC3CC(CC(C3)C1)C2)Nc1ncnc2c1CCN(Cc1ccc(-c3ccccn3)cc1)C2` [Compound 65], which IL-1β % inhibition is on record?
**A.** + (compound exhibited 0-25% inhibition at 0.3 μM)

**Q.** How did the IL-1β % inhibition turn out when `O=C(CC12CC3CC(CC(C3)C1)C2)Nc1ncnc2c1CCN(S(=O)(=O)c1ccc(Cl)c(Cl)c1)C2` [Compound 155] was run?
**A.** + (compound exhibited 0-25% inhibition at 0.3 μM)

**Q.** Which IL-1β % inhibition does the source give for `O=C(CC12CC3CC(CC(C3)C1)C2)Nc1ncnc2c1CCN(Cc1ccnc3ccccc13)C2` [Compound 69] here?
**A.** + (compound exhibited 0-25% inhibition at 0.3 μM)

**Q.** With `CC12CC3CC(C)(C1)CC(CC(=O)Nc1ncnc4c1CCN(C(=O)c1cc(F)ccc1F)C4)(C3)C2` [Compound 390] as the compound, how does the IL-1β % inhibition read?
**A.** + (compound exhibited 0-25% inhibition at 0.3 μM)

**Q.** Which IL-1β % inhibition does the source give for `COc1ccc(CN2CCc3c(ncnc3NC(=O)CC34CC5CC(CC(C5)C3)C4)C2)cc1` [Compound 40] here?
**A.** + (compound exhibited 0-25% inhibition at 0.3 μM)

**Q.** How did the IL-1β % inhibition turn out when `COc1ccc(CN2CCc3c(ncnc3NC(=O)CC34CC5CC(CC(C5)C3)C4)C2)cc1C` [Compound 39] was run?
**A.** + (compound exhibited 0-25% inhibition at 0.3 μM)

**Q.** Which IL-1β % inhibition does the source give for `CC(C)(C)c1ccc(CN2CCc3c(ncnc3NC(=O)CC34CC5CC(CC(C5)C3)C4)C2)cc1` [Compound 71] here?
**A.** + (compound exhibited 0-25% inhibition at 0.3 μM)

**Q.** How did the IL-1β % inhibition turn out when `O=C(CC12CC3CC(CC(C3)C1)C2)Nc1ncnc2c1CCN(Cc1ccc3c(c1)OCCCO3)C2` [Compound 333] was run?
**A.** +++ (compound exhibited 50-75% inhibition at 0.3 μM)

**Q.** With `Cc1ccc(CN2CCc3c(ncnc3NC(=O)CC34CC5CC(CC(C5)C3)C4)C2)cc1` [Compound 44] as the compound, how does the IL-1β % inhibition read?
**A.** + (compound exhibited 0-25% inhibition at 0.3 μM)

**Q.** For `O=C(CC12CC3CC(CC(C3)C1)C2)Nc1ncnc2c1CCN(S(=O)(=O)Cc1cc(Cl)cc(Cl)c1)C2` [Compound 186], which IL-1β % inhibition is on record?
**A.** ++++ (compound exhibited 75% or greater inhibition at 0.3 μM)

**Q.** `Cc1ccccc1CN1CCc2c(ncnc2NC(=O)CC23CC4CC(CC(C4)C2)C3)C1` [Compound 31] was tested. Which IL-1β % inhibition did it give?
**A.** +++ (compound exhibited 50-75% inhibition at 0.3 μM)

**Q.** For `O=C(CC12CC3CC(CC(C3)C1)C2)Nc1ncnc2c1CCN(C(=O)c1ccc(C(F)(F)F)cc1F)C2` [Compound 266], which IL-1β % inhibition is on record?
**A.** + (compound exhibited 0-25% inhibition at 0.3 μM)

**Q.** For `O=C(CC12CC3CC(CC(C3)C1)C2)Nc1ncnc2c1CCN(Cc1cccc(F)c1)C2` [Compound 33], which IL-1β % inhibition is on record?
**A.** + (compound exhibited 0-25% inhibition at 0.3 μM)

**Q.** With `CC(C)(C)CC(=O)N1CCc2c(ncnc2NC(=O)CC23CC4CC(C)(CC(C)(C4)C2)C3)C1` [Compound 388] as the compound, how does the IL-1β % inhibition read?
**A.** + (compound exhibited 0-25% inhibition at 0.3 μM)

**Q.** For `O=C(O)COc1ccccc1CN1CCc2c(ncnc2NC(=O)CC23CC4CC(CC(C4)C2)C3)C1` [Compound 141], which IL-1β % inhibition is on record?
**A.** + (compound exhibited 0-25% inhibition at 0.3 μM)

**Q.** With `CCc1ccc(C(=O)N2CCc3c(ncnc3NC(=O)C34CC5CC(CC(C5)C3)C4)C2)cc1` [Compound 402] as the compound, how does the IL-1β % inhibition read?
**A.** + (compound exhibited 0-25% inhibition at 0.3 μM)

**Q.** `O=C(CC12CC3CC(CC(C3)C1)C2)Nc1ncnc2c1CCN(S(=O)(=O)c1cccc(F)c1)C2` [Compound 215] was tested. Which IL-1β % inhibition did it give?
**A.** +++ (compound exhibited 50-75% inhibition at 0.3 μM)

**Q.** `CCCCc1nc(CN2CCc3c(ncnc3NC(=O)CC34CC5CC(CC(C5)C3)C4)C2)c[nH]1` [Compound 80] was tested. Which IL-1β % inhibition did it give?
**A.** ++ (compound exhibited 25-50% inhibition at 0.3 μM)

**Q.** For `CC12CC3CC(C)(C1)CC(C(C)(C)C(=O)Nc1ncnc4c1CCN(Cc1ccccc1)C4)(C3)C2` [Compound 343], which IL-1β % inhibition is on record?
**A.** + (compound exhibited 0-25% inhibition at 0.3 μM)

**Q.** `COc1cc(CN2CCc3c(ncnc3NC(=O)CC34CC5CC(CC(C5)C3)C4)C2)ccc1F` [Compound 103] was tested. Which IL-1β % inhibition did it give?
**A.** + (compound exhibited 0-25% inhibition at 0.3 μM)

**Q.** Which IL-1β % inhibition does the source give for `Cc1nn(C)c(C)c1S(=O)(=O)N1CCc2c(ncnc2NC(=O)CC23CC4CC(CC(C4)C2)C3)C1` [Compound 198] here?
**A.** + (compound exhibited 0-25% inhibition at 0.3 μM)

**Q.** With `O=C(NCCc1ccccc1)c1ncnc2c1CCNC2` [Compound 3] as the compound, how does the IL-1β % inhibition read?
**A.** + (compound exhibited 0-25% inhibition at 0.3 μM)

**Q.** Which IL-1β % inhibition does the source give for `O=C(CC12CC3CC(CC(C3)C1)C2)Nc1ncnc2c1CCN(Cc1ccc(Cl)cc1Cl)C2` [Compound 319] here?
**A.** + (compound exhibited 0-25% inhibition at 0.3 μM)

Same assay, conditions: at 0.3 μM; THP-1 cells, BzATP-stimulated

**Q.** `O=C(Nc1ncnc2c1CCN(S(=O)(=O)c1ccc3oc(=O)ccc3c1)C2)C12CC3CC(CC(C3)C1)C2` [Compound 505] was tested. Which IL-1β % inhibition did it give?
**A.** + (compound exhibited 0-25% inhibition at 0.3 μM)

**Q.** For `Cc1cc(C)cc(S(=O)(=O)N2CCc3c(ncnc3NC(=O)C34CC5CC(CC(C5)C3)C4)C2)c1` [Compound 550], which IL-1β % inhibition is on record?
**A.** + (compound exhibited 0-25% inhibition at 0.3 μM)

**Q.** With `O=C(Nc1ncnc2c1CCN(S(=O)(=O)c1ccc(F)cc1Cl)C2)C12CC3CC(CC(C3)C1)C2` [Compound 545] as the compound, how does the IL-1β % inhibition read?
**A.** ++ (compound exhibited 25-50% inhibition at 0.3 μM)

**Q.** With `O=C(Nc1ncnc2c1CCN(S(=O)(=O)c1c(F)cccc1F)C2)C12CC3CC(CC(C3)C1)C2` [Compound 540] as the compound, how does the IL-1β % inhibition read?
**A.** + (compound exhibited 0-25% inhibition at 0.3 μM)

**Q.** With `O=C(Nc1ncnc2c1CCN(Cc1ccc(Cl)c(F)c1)C2)C12CC3CC(CC(C3)C1)C2` [Compound 611] as the compound, how does the IL-1β % inhibition read?
**A.** +++ (compound exhibited 50-75% inhibition at 0.3 μM)

**Q.** How did the IL-1β % inhibition turn out when `O=C(Nc1ncnc2c1CCN(Cc1cc(Br)ccc1F)C2)C12CC3CC(CC(C3)C1)C2` [Compound 618] was run?
**A.** + (compound exhibited 0-25% inhibition at 0.3 μM)

**Q.** With `CCS(=O)(=O)N1CCc2c(ncnc2NC(=O)C23CC4CC(CC(C4)C2)C3)C1` [Compound 486] as the compound, how does the IL-1β % inhibition read?
**A.** + (compound exhibited 0-25% inhibition at 0.3 μM)

**Q.** Which IL-1β % inhibition does the source give for `O=C(Nc1ncnc2c1CCN(Cc1ccc3ccccc3c1)C2)C12CC3CC(CC(C3)C1)C2` [Compound 565] here?
**A.** ++++ (compound exhibited 75% or greater inhibition at 0.3 μM)

**Q.** `Cc1ccccc1S(=O)(=O)N1CCc2c(ncnc2NC(=O)C23CC4CC(CC(C4)C2)C3)C1` [Compound 533] was tested. Which IL-1β % inhibition did it give?
**A.** +++ (compound exhibited 50-75% inhibition at 0.3 μM)

**Q.** With `O=C(Nc1ncnc2c1CCN(CC1CC1)C2)C12CC3CC(CC(C3)C1)C2` [Compound 557] as the compound, how does the IL-1β % inhibition read?
**A.** + (compound exhibited 0-25% inhibition at 0.3 μM)

**Q.** How did the IL-1β % inhibition turn out when `O=C(c1cc(C(F)(F)F)ccc1Cl)N1CCc2c(ncnc2NC(=O)C23CC4CC(CC(C4)C2)C3)C1` [Compound 443] was run?
**A.** ++ (compound exhibited 25-50% inhibition at 0.3 μM)

**Q.** How did the IL-1β % inhibition turn out when `O=C(Nc1ncnc2c1CCN(S(=O)(=O)c1ccc(F)c(Cl)c1)C2)C12CC3CC(CC(C3)C1)C2` [Compound 526] was run?
**A.** ++ (compound exhibited 25-50% inhibition at 0.3 μM)
